Data as given in patent US20240199623A1 (ILDONG PHARMACEUTICAL CO., LTD., priority 2020, published 2024).

Molecular target: human wild type-CFTR (Homo sapiens, UniProt P13569)
Assay: Cell-based YFP assay
Set-up: expressed in transfected cells; host or cells: CHO-K1 (Chinese hamster ovary)
Settings: CHO-K1 cells expressing human wild type-CFTR and YFP-H148Q/I152L; forskolin 20 μM = 100% activity; read-out: Cell-based YFP Assay (EC50) Concentration Range
Outline: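 CHO-K1 cells co-expressing human wild-type CFTR and YFP-H148Q/I152L halide sensor, grown 48 h at 37 °C, then in PBS. YFP quenching by I⁻ influx read at 37 °C after adding 140 mM I⁻ solution, sampled every 0.4 s for 14 s. Triplicates averaged; EC50 fitted.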

Sequence of human wild type-CFTR (P13569 whole entry): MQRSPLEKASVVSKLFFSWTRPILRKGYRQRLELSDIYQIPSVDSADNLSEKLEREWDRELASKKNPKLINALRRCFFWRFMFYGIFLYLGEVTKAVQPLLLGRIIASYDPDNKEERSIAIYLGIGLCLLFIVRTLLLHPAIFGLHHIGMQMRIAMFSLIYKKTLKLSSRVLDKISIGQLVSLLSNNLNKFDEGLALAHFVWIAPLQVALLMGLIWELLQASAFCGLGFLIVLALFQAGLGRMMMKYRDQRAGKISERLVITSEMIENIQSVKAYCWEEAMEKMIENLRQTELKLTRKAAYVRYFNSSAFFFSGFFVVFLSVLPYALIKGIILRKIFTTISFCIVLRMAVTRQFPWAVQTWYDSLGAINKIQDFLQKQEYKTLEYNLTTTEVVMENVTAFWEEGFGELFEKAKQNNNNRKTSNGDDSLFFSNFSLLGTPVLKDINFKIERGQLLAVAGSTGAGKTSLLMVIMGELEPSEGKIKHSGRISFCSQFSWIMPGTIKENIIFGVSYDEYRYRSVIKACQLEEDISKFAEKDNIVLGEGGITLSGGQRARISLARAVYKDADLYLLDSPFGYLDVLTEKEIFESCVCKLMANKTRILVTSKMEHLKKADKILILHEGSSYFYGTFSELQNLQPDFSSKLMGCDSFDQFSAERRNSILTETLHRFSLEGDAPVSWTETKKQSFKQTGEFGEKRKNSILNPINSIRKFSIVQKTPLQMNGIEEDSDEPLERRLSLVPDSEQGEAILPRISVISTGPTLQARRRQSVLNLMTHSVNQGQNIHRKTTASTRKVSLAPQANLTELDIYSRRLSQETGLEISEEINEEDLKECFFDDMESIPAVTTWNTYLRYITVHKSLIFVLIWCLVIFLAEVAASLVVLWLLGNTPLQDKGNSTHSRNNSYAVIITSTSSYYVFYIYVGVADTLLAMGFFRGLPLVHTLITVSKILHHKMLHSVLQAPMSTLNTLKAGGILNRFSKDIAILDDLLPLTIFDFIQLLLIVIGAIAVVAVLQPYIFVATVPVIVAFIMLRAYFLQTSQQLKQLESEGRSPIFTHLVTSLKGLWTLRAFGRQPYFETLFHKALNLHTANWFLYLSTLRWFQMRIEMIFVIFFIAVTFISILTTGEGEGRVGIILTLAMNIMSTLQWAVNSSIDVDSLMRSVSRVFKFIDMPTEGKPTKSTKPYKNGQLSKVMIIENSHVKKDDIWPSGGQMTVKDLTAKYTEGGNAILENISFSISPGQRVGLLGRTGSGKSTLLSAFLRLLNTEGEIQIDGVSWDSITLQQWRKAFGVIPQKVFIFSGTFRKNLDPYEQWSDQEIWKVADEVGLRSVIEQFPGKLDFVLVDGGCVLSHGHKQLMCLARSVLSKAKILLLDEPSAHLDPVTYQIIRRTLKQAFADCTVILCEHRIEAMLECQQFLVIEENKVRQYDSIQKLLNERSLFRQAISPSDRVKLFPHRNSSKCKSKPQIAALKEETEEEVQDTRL

| Compound | EC50 [µM] |
| --- | --- |
| COc1ccc(-c2ccnc3cc(C(=O)Nc4ccc(N5CCOCC5)cn4)nn23)c(F)c1 [Compound 297, 7-(2-fluoro-4-methoxyphenyl)-N-(5-morpholinopyridin-2-yl) pyrazolo[1,5-a]pyrimidine-2-carboxamide] | ≥ 2 |
| O=C(Nc1ccc(N2CCOCC2)cn1)c1cc2nccc(-c3ccc(OC(F)(F)F)c(Cl)c3)n2n1 [Compound 299, 7-(3-chloro-4-(trifluoromethoxy)phenyl)-N-(5-morpholinopyridin-2-yl) pyrazolo[1,5-a]pyrimidine-2-carboxamide] | ≥ 2 |
| COC(=O)c1ccc(NC(=O)c2cc3nccc(-c4ccccc4)n3n2)cc1 [Compound 305, methyl 4-(7-phenylpyrazolo[1,5-a]pyrimidine-2-carboxamido)benzoate] | ≥ 2 |
| Cc1cccc(-c2ccnc3cc(C(=O)Nc4ccc(N5CCOCC5)cn4)nn23)c1 [Compound 306, N-(5-morpholinopyridin-2-yl)-7-(m-tolyl)pyrazolo[1,5-a] pyrimidine-2-carboxamide] | ≥ 2 |
| COc1ccc(-c2ccnc3cc(C(=O)Nc4ccc(N5CCOCC5)cc4F)nn23)cc1OC [Compound 311, 7-(3,4-dimethoxyphenyl)-N-(2-fluoro-4-morpholinophenyl) pyrazolo[1,5-a]pyrimidine-2-carboxamide] | < 0.2 |
| COc1ccc(-c2ccnc3cc(C(=O)Nc4ccc(N(C)C)cn4)nn23)cc1OC [Compound 312, 7-(3,4-dimethoxyphenyl)-N-(5-(dimethylamino)pyridin-2-yl)pyrazolo [1,5-a]pyrimidine-2-carboxamide] | < 0.2 |
| COc1ccc(-c2ccnc3cc(C(=O)N4CCN(C(=O)c5ccccc5OC)[C@@H](C)C4)nn23)cc1OC [Compound 317, (S)-(7-(3,4-dimethoxyphenyl)pyrazolo[1,5-a]pyrimidin-2-yl)(4-(2-methoxybenzoyl)-3-methylpiperazin-1-yl) methanone] | 0.2 to 2 |
| COc1cccc(C(=O)N2CCN(C(=O)c3cc4nccc(-c5ccc(OC)c(OC)c5)n4n3)C[C@@H]2C)c1 [Compound 318, (S)-(7-(3,4-dimethoxyphenyl)pyrazolo[1,5-a]pyrimidin-2-yl)(4-(3-methoxybenzoyl)-3-methylpiperazin-1-yl) methanone] | 0.2 to 2 |
| COc1ccc(C(=O)N2CCN(C(=O)c3cc4nccc(-c5ccc(OC)c(OC)c5)n4n3)C[C@@H]2C)cc1 [Compound 319, (S)-(7-(3,4-dimethoxyphenyl)pyrazolo[1,5-a]pyrimidin-2-yl)(4-(4-methoxybenzoyl)-3-methylpiperazin-1-yl) methanone] | 0.2 to 2 |
| COc1ccc(-c2ccnc3cc(C(=O)N[C@]45CC[C@](N6CCOCC6)(CC4)CC5)nn23)cc1OC [Compound 320, 7-(3,4-dimethoxyphenyl)-N-(4-morpholinobicyclo[2.2.2]octan-1-yl) pyrazolo[1,5-a]pyrimidine-2-carboxamide] | 0.2 to 2 |
| COc1ccc(-c2ccnc3cc(C(=O)N4CCN(C(=O)OC(C)(C)C)[C@H](C)C4)nn23)cc1OC [Compound 321, tert-butyl (R)-4-(7-(3,4-dimethoxyphenyl)pyrazolo [1,5-a]pyrimidine-2-carbonyl)-2-methylpiperazine-1-carboxylate] | 0.2 to 2 |
| COc1ccc(-c2ccnc3cc(C(=O)N4CCN[C@H](C)C4)nn23)cc1OC [Compound 322, (R)-(7-(3,4-dimethoxyphenyl)pyrazolo[1,5-a]pyrimidin-2-yl)(3-methylpiperazin-1-yl)methanone] | ≥ 2 |
| COc1ccc(NC(=O)c2cc3nccc(-c4ccc(OC)c(OC)c4)n3n2)c(F)c1 [Compound 325, 7-(3,4-dimethoxyphenyl)-N-(2-fluoro-4-methoxyphenyl)pyrazolo [1,5-a]pyrimidine-2-carboxamide] | < 0.2 |
| COc1ccc(-c2ccnc3cc(C(=O)Nc4ccc(OC)c(F)c4F)nn23)cc1OC [Compound 326, N-(2,3-difluoro-4-methoxyphenyl)-7-(3,4-dimethoxyphenyl)pyrazolo [1,5-a]pyrimidine-2-carboxamide] | 0.2 to 2 |
| COCCOCOC(=O)[C@H]1CC[C@H](NC(=O)c2cc3nccc(-c4ccc(OC)c(OC)c4)n3n2)CC1 [Compound 328, (2-methoxyethoxy)methyl (1R,4R)-4-(7-(3,4-dimethoxyphenyl)pyrazolo [1,5-a]pyrimidine-2-carboxamido)cyclohexane-1-carboxylate] | 0.2 to 2 |

Results, then the compound that gave them:

| EC50 [µM] | Compound |
| --- | --- |
| < 0.2 | COc1ccc(-c2ccnc3cc(C(=O)Nc4ccc(CO)cc4)nn23)cc1OC [Compound 292, 7-(3,4-dimethoxyphenyl)-N-(4-(hydroxymethyl)phenyl) pyrazolo[1,5-a]pyrimidine-2-carboxamide] |
| ≥ 2 | CCOc1ccc(NC(=O)c2cc3nccc(-c4ccc(F)c(F)c4)n3n2)cc1 [Compound 293] |
| ≥ 2 | COc1ccc(-c2ccnc3cc(C(=O)Nc4ccc(N5CCOCC5)cn4)nn23)cc1[N+](=O)[O-] [Compound 294, 7-(4-methoxy-3-nitrophenyl)-N-(5-morpholinopyridin-2-yl) pyrazolo[1,5-a] pyrimidine-2-carboxamide] |
| ≥ 2 | CCOc1ccc(NC(=O)c2cc3nccc(-c4ccc(OC)c([N+](=O)[O-])c4)n3n2)cc1 [Compound 295, N-(4-ethoxyphenyl)-7-(4-methoxy-3-nitrophenyl)pyrazolo [1,5-a]pyrimidine-2-carboxamide] |
| ≥ 2 | CCOc1ccc(NC(=O)c2cc3nccc(-c4ccc(OC)cc4F)n3n2)cc1 [Compound 296, N-(4-ethoxyphenyl)-7-(2-fluoro-4-methoxyphenyl)pyrazolo [1,5-a]pyrimidine-2-carboxamide] |
| ≥ 2 | CCOc1ccc(NC(=O)c2cc3nccc(-c4ccc(OC(F)(F)F)c(Cl)c4)n3n2)cc1 [Compound 298, 7-(3-chloro-4-(trifluoromethoxy)phenyl)-N-(4-ethoxyphenyl)pyrazolo [1,5-a]pyrimidine-2-carboxamide] |
| ≥ 2 | CCOc1ccc(NC(=O)c2cc3nccc(-c4ccccc4)n3n2)cc1 [Compound 300, N-(4-ethoxyphenyl)-7-phenylpyrazolo[1,5-a]pyrimidine-2-carboxamide] |
| ≥ 2 | CCOc1ccc(NC(=O)c2cc3nccc(-c4cccc(C)c4)n3n2)cc1 [Compound 301, N-(4-ethoxyphenyl)-7-(m-tolyl)pyrazolo[1,5-a] pyrimidine-2-carboxamide] |
| ≥ 2 | CCOc1ccc(NC(=O)c2cc3nccc(-c4ccc(F)c(C)c4)n3n2)cc1 [Compound 302, N-(4-ethoxyphenyl)-7-(4-fluoro-3-methylphenyl)pyrazolo [1,5-a]pyrimidine-2-carboxamide] |
| ≥ 2 | CCOc1ccc(NC(=O)c2cc3nccc(-c4cccs4)n3n2)cc1 [Compound 303, N-(4-ethoxyphenyl)-7-(thiophen-2-yl) pyrazolo[1,5-a]pyrimidine-2-carboxamide] |
| ≥ 2 | CCOc1ccc(NC(=O)c2cc3nccc(-c4ccc(Cl)cc4F)n3n2)cc1 [Compound 304, 7-(4-chloro-2-fluorophenyl)-N-(4-ethoxyphenyl)pyrazolo [1,5-a]pyrimidine-2-carboxamide] |
| 0.2 to 2 | CCOc1ccc(NC(=O)c2cc3nccc(-c4ccc(F)c(OC)c4)n3n2)cc1 [Compound 307, N-(4-ethoxyphenyl)-7-(4-fluoro-3-methoxyphenyl)pyrazolo [1,5-a]pyrimidine-2-carboxamide] |
| 0.2 to 2 | CCOc1ccc(NC(=O)c2cc3nccc(-c4ccc(OC)c(F)c4)n3n2)cc1 [Compound 308, N-(4-ethoxyphenyl)-7-(3-fluoro-4-methoxyphenyl)pyrazolo [1,5-a]pyrimidine-2-carboxamide] |
| < 0.2 | COc1ccc(-c2ccnc3cc(C(=O)Nc4ccc5c(ccn5C)c4)nn23)cc1OC [Compound 309, 7-(3,4-dimethoxyphenyl)-N-(1-methyl-1H-indol-5-yl)pyrazolo [1,5-a]pyrimidine-2-carboxamide] |
| < 0.2 | COc1ccc(-c2ccnc3cc(C(=O)Nc4ccc5c(c4)OCO5)nn23)cc1OC [Compound 310, N-(benzo[d][1,3]dioxol-5-yl)-7-(3,4-dimethoxyphenyl)pyrazolo[1,5-a]pyrimidine-2-carboxamide] |
| ≥ 2 | CCOc1ccc(NC(=O)c2cc3nccc(-c4ccc5c(c4)CCO5)n3n2)cc1 [Compound 313, 7-(2,3-dihydrobenzofuran-5-yl)-N-(4-ethoxyphenyl)pyrazolo [1,5-a]pyrimidine-2-carboxamide] |
| < 0.2 | CCOc1ccc(NC(=O)c2cc3nccc(-c4ccc(OC)c(OC)c4)n3n2)nc1 [Compound 314, 7-(3,4-dimethoxyphenyl)-N-(5-ethoxypyridin-2-yl)pyrazolo[1,5-a] pyrimidine-2-carboxamide] |
| ≥ 2 | CCOc1ccc(NC(=O)c2cc3nccc(-c4cc(OC)cc(OC)c4)n3n2)cc1 [Compound 315, 7-(3,5-dimethoxyphenyl)-N-(4-ethoxyphenyl)pyrazolo [1,5-a]pyrimidine-2-carboxamide] |
| ≥ 2 | CCOc1ccc(NC(=O)c2cc3nccc(-c4ccc(F)c(Cl)c4)n3n2)cc1 [Compound 316, 7-(3-chloro-4-fluorophenyl)-N-(4-ethoxyphenyl)pyrazolo [1,5-a]pyrimidine-2-carboxamide] |
| ≥ 2 | CCOc1ccc(NC(=O)c2cc3nccc(-c4ccc(N(C)C)cc4)n3n2)cc1 [Compound 324, 7-(4-(dimethylamino)phenyl)-N-(4-ethoxyphenyl)pyrazolo [1,5-a]pyrimidine-2-carboxamide] |
| < 0.2 | COc1ccc(-c2ccnc3cc(C(=O)Nc4ccc(O)cn4)nn23)cc1OC [Compound 327, 7-(3,4-dimethoxyphenyl)-N-(5-hydroxypyridin-2-yl)pyrazolo[1,5-a] pyrimidine-2-carboxamide] |
| < 0.2 | COCCOCOC(=O)c1ccc(NC(=O)c2cc3nccc(-c4ccc(OC)c(OC)c4)n3n2)cc1 [Compound 329, (2-methoxyethoxy)methyl 4-(7-(3,4-dimethoxyphenyl)pyrazolo [1,5-a]pyrimidine-2-carboxamido)benzoate] |
